Laboratory results: ChEMBL document CHEMBL5727755, “Boronic acid derivatives” (2020)

Assay: Determination of LMP7 Activity: Measurement of LMP7 inhibition is performed in 384 well format based on fluorescence intensity assay.Purified human immuno proteasome (0.25 nM) and serial diluted compounds in DMSO (range of concentrations from 30 μM to 15 pM) or controls are incubated for 20 minutes or 120 minutes (long incubation) at 25° C. in assay buffer containing 50 mM Tris pH 7.4, 0.03% SDS, 1 mM EDTA and 1% DMSO. The reaction is initiated by the addition of the fluorogenic peptide substrate, Suc-LLVY-AMC (Bachem 1-1395), at a concentration of 40 μM. After 60 minutes of incubation at 37° C., fluorescence intensity is measured at λex=350 nm and λem=450 nm with a fluorescence reader (Perkin Elmer Envision reader or equivalent).

With `CC#CC(=O)N(CCC)CC(=O)N[C@@H](Cc1ccc(C)cc1C)B(O)O` the IC50 was under 50 nM.

In the case of `C=CS(=O)(=O)N(C)CC(=O)N[C@@H](Cc1ccc(C)c(C)c1)B(O)O`, the IC50 is reported as “in the range around 275 nM”.
